Results: patent publication US20100316609A1, “Conditionally Replicating Viruses for Cancer Therapy” (priority 2006, published 2010)

Legend:
[1] = tested on: human lung fibroblasts; experiment: HIV-1 RT based cellular dNTP assay; assay type: cell-based
Source text: A ^32P labeled 18-mer annealed to a 19-mer template was extended by HIV-1 RT with known amounts of TTP. Percent of the primer extension with each dNTP amount was plotted (B).
A highly sensitive dNTP assay capable of monitoring dNTP levels in primary cells has been described (Diamond et al., J. Biol. Chem. 279:51545-53 2004). It has been difficult to determine dNTP levels in terminally differentiated primary cells due to the lack of highly sensitive dNTP assays. […] This assay used a ^32P-labeled 18-mer primer annealed to a 19-mer template, allowing incorporation of one of four dNTPs, generating 19-mer products (FIG. 2A). Indeed, this assay is ˜250 times more sensitive than the HPLC based assay. With this assay, dNTP concentrations in primary human macrophages, CD4+ T cells, and human fibroblasts were determined (Table 3). This assay also allowed monitoring of fluctuations of cellular dNTP contents, in different cell types, or under different phases of the cell cycle or culture conditions. Primary cells such as human primary lung fibroblast cells (HFL culture with 10% serum) have 5-10 lower dNTP content than tumor cells such as PANC1 cells (Table 4). Treatment with deoxynucleoside (dNs) enhanced cellular dNTP content in human lung fibroblasts (cultured with 10% serum) by 80 fold (Table 4).

[2] = tested on: N2A neuroblastoma cells; experiment: VPA effect on Ad.CMV-LacZ gene expression in vitro; assay type: cell-based
Procedure: FIG. 5A is a graph showing N2A cells transduced by Ad.CMV-LacZ, and then exposed to varying concentrations of VPA (as indicated). Twenty-four hours later, LacZ expression was analyzed. FIG. 5B is a graph showing N2A cells cultured on poly-D-lysine coated 12-well plates in NB/B27 medium, and transduced with Ad.CMV-LacZ at a multiplicity of infection (MOI) of 10. Two hours thereafter, the culture medium was replaced with medium containing 1 mM VPA or vehicle (control). The medium was changed every 24-hours thereafter, and cell aliquots were harvested at the indicated time points (1, 3, 5, 7, 10 and 12 days post infection). LacZ expression was then measured in the lysates.
VPA enhanced virally-vectored gene expression, using a panel of gene delivery platforms that include recombinant, replication-defective type 5 adenovirus vectors. […] Similar effects were also observed in several primary cells transduced by Ad-CMV-LacZ (Fan, et al., J. Virol. Methods 125:23-33 (2005)).

[3] = tested on: BALB/c mice; experiment: VPA effect on Ad-CMV-Luc gene expression in vivo; conditions: Ad-CMV-Luc intramuscular, VPA six days, biophotonic imaging
Procedure: In FIG. 6A luciferase-encoding adenovirus vector (Ad.CMV-Luc) was inoculated into the thigh muscle of BALB/c mice. These animals (3/group) were then treated with either VPA or with vehicle alone for six days, by twice-daily i.p. injection. Representative images obtained with the IVIS CCD camera at day 2 and 6 post Ad-infection are presented. In FIG. 6B the levels of adenovirally vectored luciferase gene expression in the mice shown in panel A were quantitated at day 2 and 6 post infection using the Living Image® 2.20.1 software (Xenogen, Alameda, Calif.).
[…] of a luciferase-expressing adenovirus vector (Ad-CMV-Luc) was inoculated into BALB/c mice, via an intramuscular route. These animals were then treated with either VPA or with vehicle alone for six days, and the expression of luciferase was analyzed over time using biophotonic imaging.

Compound | enhancement of cellular dNTP content ([1]; human lung fibroblasts cultured with 10% serum) | [dNTP] ([1]; lung fibroblasts (+dN)) | [dNTP] relative to untreated lung fibroblasts (1x) ([1]; lung fibroblasts (+dN)) | reporter gene (LacZ) expression ([2]; Ad-CMV-LacZ transduced N2A cells, varying VPA, FIG. 5A) | duration of increased expression of the delivered gene post VPA-treatment ([2]; VPA 1 mM, FIG. 5B) | expression of luciferase compared to untreated mice [3]
deoxynucleosides [dNs] | 80 fold | 20~90 μM | ~80 x | – | – | –
CCCC(CCC)C(=O)O [VPA, Valproic acid] | – | – | – | dose-dependent increase | more than 12 days | increased expression of luciferase
